Columns and labels:
[1] = MMV: MTT Cytotoxicity Assay Day 3 pi, U87-CD4-CCR5 cells, % cell death @ 5mM compound; type: toxicity, cell-based; settings: human, u87-cd4-ccr5, 5000 µM
[2] = MMV: MTT Cytotoxicity Assay Day 3 pi, U87-CD4-CXCR4 cells, % cell death @ 5mM compound; type: toxicity, cell-based; settings: human, u87-cd4-cxcr4, 5000 µM
[3] = system: Human immunodeficiency virus 1; assay: MMV: HIV JRFL CCR5-tropic replication-competent virus, virus & compound washed out Day 1 pi, P24 ELISA Day 7 pi, U87-CD4-CCR5, % inhibition at 5 mM compound; type: functional; parameters: dose or concentration left out as unconfirmed; settings: Human immunodeficiency virus 1, JR-FL
[4] = MMV: MTT Cytotoxicity Assay Day 7 pi of Assay #6 (compound washed out Day 1 pi), U87-CD4-CCR5 cells, % cell death @ 5mM compound; type: toxicity, cell-based; settings: human, u87-cd4-ccr5, 5000 µM
[5] = MMV: MTT Cytotoxicity Assay Day 7 pi of Assay #7 (compound washed out Day 1 pi), U87-CD4-CXCR4 cells, % cell death @ 5mM compound; type: toxicity, cell-based; settings: human, u87-cd4-cxcr4, 5000 µM
[6] = MMV: MTT Cytotoxicity Assay Day 7 pi of Assay #10 (NO washout), U87-CD4-CCR5 cells, % cell death @ 5mM compound; type: toxicity, cell-based; settings: human, u87-cd4-ccr5, 5000 µM
[7] = MMV: MTT Cytotoxicity Assay Day 7 pi of Assay #11 (NO washout), U87-CD4-CXCR4 cells, % cell death @ 5mM compound; type: toxicity, cell-based; settings: human, u87-cd4-cxcr4, 5000 µM

| SMILES | % Cell Death [1] | % Cell Death [2] | inhibition [3] [%] | % Cell Death [4] | % Cell Death [5] | % Cell Death [6] | % Cell Death [7] |
| --- | --- | --- | --- | --- | --- | --- | --- |
| CN1CCN(c2ccc(Nc3c4ccccc4nc4ccccc34)cc2)CC1 | 11 | 22 | 6 | 22 | -14 | 19 | -32 |
| CCOc1cc(CNC(C)C(O)c2ccccc2)cc(Cl)c1OCC (stereo not given) | 40 | 89 |  | 32 | 25 | 67 | 73 |
| O=C(NC1CCN(Cc2ccccc2)CC1)c1cc2nc(-c3ccc(Cl)s3)cc(C(F)(F)F)n2n1 | -2 | 31 |  | -12 | -15 | 46 | 11 |
| O=C(NCC(c1ccsc1)N1CCCCCC1)c1ccc(C(F)(F)F)cc1 (stereo not given) | 10 | 23 | 1 | 12 | -26 | 19 | 12 |
| CN1CCN(c2ncnc3c2[nH]c2ccc(Cl)cc23)CC1 | -11 | 27 | 10 | 29 | -25 | 31 | 1 |
| CC(C)CNC(=O)c1c(N)n(CCc2ccccc2F)c2nc3ccccc3nc12 | 0 | 47 | 3 | 4 | -6 | 35 | 99 |
| Cc1ccc(-c2cc(C(=O)Nc3ccc(S(=O)(=O)N4CCCCC4)cc3)[nH]n2)c(O)c1 | -5 | 11 | 6 | 18 | -29 | 10 | 16 |
| CCOC(=O)C1=C(C)N=c2sc(=Cc3cc(Cl)ccc3O)c(=O)n2C1c1ccc(OC)cc1 (stereo not given) | -27 | 15 | 1 | 10 | -6 | 11 | -46 |
| COc1ccc(-c2nc(NC(=O)CS(=O)(=O)c3ccc(F)cc3)sc2C)cc1 | 41 | 29 | -1 | -7 | 9 | 10 | 71 |
| O=C(NCc1ccco1)C1CCN(S(=O)(=O)c2ccc(Cl)cc2)CC1 | 22 | 12 | 1 | 37 | -15 | 18 | 23 |
| COc1ccc(N2CCN(C(CNC(=O)C3CCCCC3)c3ccc4c(c3)OCO4)CC2)cc1 (stereo not given) | 17 | 63 | 10 | 25 | 6 | 38 | 71 |
| COc1cc2cc(C(=O)Nc3ccccc3)c(N)nc2cc1OC | 75 | 43 | 9 | 0 | 51 | 95 | 106 |
| CC(=O)c1ccc(NC(=O)CSc2nc(-c3ccccc3Cl)ns2)cc1 | 57 | 51 | 7 | 7 | 8 | 41 | -33 |
| Cc1sc2ncnc(Sc3nc4ccccc4[nH]3)c2c1C | 16 | 18 | -1 | -6 | -5 | 27 | -15 |
| COCCNC(=O)c1ccc(OC2CCN(Cc3ccc(F)c(F)c3)CC2)c(Cl)c1 | 31 | 4 | 9 | 20 | -5 | 15 | -22 |
| CCC(=O)Nc1nnc(Cc2ccc(OC)c(OC)c2)s1 | 17 | 21 | -1 | -1 | -14 | 9 | -23 |
| CCCCOC(=O)c1ccc(Nc2cc(C)nc3ccc(OC)cc23)cc1 | 32 | 30 | 0 | 16 | -10 | 21 | -45 |
| Cc1ccc(CSCc2ccc(C(=O)NC3CC3)o2)cc1 | 23 | 12 | 2 | 18 | -23 | -6 | -2 |

| SMILES | % Cell Death [1] | % Cell Death [2] | inhibition [3] [%] | % Cell Death [4] | % Cell Death [5] | % Cell Death [6] | % Cell Death [7] |
| --- | --- | --- | --- | --- | --- | --- | --- |
| COc1ccc(Nc2cc(C)nc(NCc3ccccc3)n2)cc1 | 41 | 94 |  | 30 | 30 | 92 | 73 |
| Cc1cc(Nc2cccc(F)c2)nc(NCc2ccccc2)n1 | 21 | 33 | 5 | 6 | -12 | 20 | -41 |
| C=CC12CCN(CC1)C(C(O)c1ccnc3ccc(OC)cc13)C2.Cl (stereo not given) | -14 | 27 | -2 | -12 | -23 | 27 | -24 |
| Cc1cccc(Nc2nc(N)c3ccccc3n2)c1.Cl | 7 | 43 | 5 | 28 | -15 | 43 | 71 |
| CN(C)c1ccc(-c2nc3cc(N)ccc3[nH]2)cc1 | 22 | 19 | 0 | -1 | -21 | 2 | -20 |
| Cl.Clc1cc(Br)ccc1-c1ccc(CNCC2CCNCC2)o1 | 15 | 27 | 4 | -9 | 4 | 0 | -60 |
| Cc1cc(NC(=O)c2ccc(-c3ccccc3)cc2)no1 | -16 | 43 | 4 | -24 | -27 | 32 | -1 |
| Cc1cc(C)c2nc(N3CCC(C(=O)NCCCN4CCC(N5CCCCC5)CC4)CC3)sc2c1 | -8 | 8 | 1 | 5 | -20 | -39 | -37 |
| CCn1c(SCC(=O)Nc2cc(C(F)(F)F)ccc2Cl)nc2ccccc2c1=O | -1 | 81 | 8 | 23 | -27 | 19 | 17 |
| CCOc1cccc2sc(N(Cc3cccnc3)C(=O)C3CCCCC3)nc12 | 2 | 9 | 4 | 34 | 8 | 65 | 52 |
| CC(O)(c1ccc(Cl)cc1)C(CN1CCCCC1)c1ccccc1.Cl (stereo not given) | -11 | 3 | 3 | 24 | -24 | 19 | -5 |
| O=c1nc(C=Cc2ccc(Cl)cc2)oc2ccccc12 | 50 | 20 | 1 | 7 | -17 | 26 | -47 |
| CN(C)c1ccc(N2C(N)=NC(N)=NC2(C)C)cc1 | -12 | 21 | 1 | 14 | 12 | 4 | 21 |
| COc1ccc(Nc2nc(NCc3ccccc3)c3ccccc3n2)cc1 | 18 | 28 | 2 | 21 | -30 | 41 | -24 |
| CCOc1ccc2nc(C)cc(Nc3ccc(Br)cc3)c2c1 | 82 | 64 |  | 26 | 72 | 108 | 106 |
| Clc1ccc2c(N3CCCC3)ccnc2c1 | 8 | 21 | 5 | 3 | 1 | 16 | -37 |
| CN(C)c1ccc(C(O)(c2ccc(N(C)C)cc2)c2ccc(N(C)C)cc2)cc1 [METHYLROSANILINE] | 2 | 98 |  | 3 | -2 | 23 | 71 |

Reference: ChEMBL document CHEMBL3301472, “MMV Malaria Box HIV and cytotoxicity screening”
